Converted amounts (≈) assume the structure as drawn. Read-outs that look alike come from different tables or passages of the source. Values belong to the compound of their own block, whether it stands above or below them.
What was measured:
[1] = system: H. pylori; experiment: Anti H. pylori screening by disc diffusion susceptibility assay; type: cell-based, Helicobacter pylori; set-up: key: strongly active (3^+, diameter>30 mm); intermediate active (2^+, ˜20-30 mm diameter); moderately active (1^+, ˜10-20 mm diameter); not active (<10 mm diameter); conditions: two doses, majority of the strains
Experimental: (§1) The discs were impregnated with […] of each of the compounds, dissolved either in ethanol or DMSO, and the zone of inhibition was measured after 72 h of growth under microaerophilic conditions at 37° C. Inhibition zone diameter ranging 10-20 mm was given a score of ^+, 20-30 mm as ^++ and that of >30 mm as ^+++, as obtained employing dose range of […]/disc. The detailed structural information of the molecules is provided under ‘Description of the Compounds’.
(§2) Methods and protocols for the determination of inhibition zone diameter are as stated under Experiment 1, and that of MIC values by microbroth dilution assay as in Experiment 3. ‘Nil’ means zone of inhibition below 10 mm.
(§3) The anti H. pylori activity of all 16 flavonoid molecules, 2 naturally isolated and 14 synthetic derivatives, was screened by disc diffusion sensitivity assay employing 2 clinical strains HP001 and HP002, and three standard strains ATCC® 700392, 43504 and 49503. A 0.5 mL inoculum (10^8 CFU/mL) for each bacterial strain tested was flooded on freshly prepared Brain Heart Infusion (BHI) agar plates supplemented with 7% FCS, 0.5% IsoVitalex and 0.0025% DENT® and the discs (5 mm diameter) containing different compounds or antibiotics (dissolved either in ethanol or DMSO) were placed on the agar surface. After incubation for 3 days in a microaerophilic atmosphere at 37° C., the diameter of the zone of inhibition was measured (Glupczynsky, 1996; McNulty et al., 2002).

[2] = system: H. pylori; experiment: as above; type: cell-based, Helicobacter pylori; conditions: 100 and 200 mg/disc (so in the source), 72 h
Experimental: as §1, §2, §3

[3] = system: H. pylori; experiment: as above; type: cell-based, Helicobacter pylori; set-up: key: strongly active (diameter>30 mm) and were given a score of 3^+; intermediate active (^˜20-30 mm diameter) and were given a score of 2^+; moderately active (^˜10-20 min diameter) and were given a score of 1^+; not active (>10 mm diameter); conditions: 100 and 200 μg/disc, majority of the strains
Experimental: as §1, §2, §3

[4] = system: H. pylori; experiment: Acid stability study (pH ~2.0, 2 h, then MIC/MBC by microbroth dilution); type: cell-based, Helicobacter pylori; conditions: Helicobacter pylori
Experimental: Details of experimental protocol are described under Experiment 7. MIC/MBC values were determined by microbroth dilution assay.
A 100 μL stock of CPP-1, NMC-1, NMC-2 and CPP-3 (1-2 mg/mL) was treated with 20-30 μL of 0.12 NHCl to bring the pH of the solution to ^˜2.0, and kept at 25° C. for 2 h (Funatogawa et al., 2004). Such acid-treated samples were then serially diluted (2 fold) with medium in 96-well microtitre plates to determine the MIC and the MBC values by microbroth dilution assay as detailed under Experiment 3.

[5] = system: H. pylori; experiment: Time kill kinetic analyses in biphasic culture; type: cell-based, Helicobacter pylori
[6] = system: H. pylori; experiment: Anti H. pylori spectrum (MIC) by agar dilution method; type: cell-based, Helicobacter pylori; conditions: for MIC50 / MIC: Helicobacter pylori; for MIC50: MIC against 50% of the strains of the panel, read-out: MIC50
Experimental: MIC was determined using agar dilution assay following the CLSI® guidelines. Six clinical isolates and four standard strains were used for this study. Five microlitre of freshly grown 3-day old culture (˜1×10^8 CFU/mL) was streaked in plates containing 2-fold serial dilution of the compounds ranging […], and incubated under microaerophilic condition at 37° C. After 72 h, the plates were inspected visually for absence of growth to assess the MIC values. The experiment was performed in duplicates. MIC50 is defined as the dose (μg/ml) required for killing 50% of the strains.
Plates contained two-fold serial dilutions of the compounds ranging from […]. Five microlitres of 3-day old freshly grown H. pylori culture (^˜10^8 CFU/mL) was inoculated onto drug-containing BHI agar plates supplemented with 7% FCS, 0.5% IsoVitalex and 0.0025% DENT®, which were then incubated for 3 days under microaerophilic condition at 37° C.

[7] = system: H. pylori; experiment: MIC and MBC by microbroth dilution assay; type: cell-based, Helicobacter pylori; conditions: Helicobacter pylori
Experimental: The compounds, serially diluted ([…]) in Muller Hinton broth containing 5% FCS, were incubated in 96-well microtitre plate containing fresh cultures of HP001 (˜5.5×10^6 CFU/mL) or ATCC® 43504 (2.65×10^6 CFU/ml) in a final volume of […]. After 72-h of incubation under microaerophilic condition at 37° C., […] of cultures wherein no growth had been detected were streaked on fresh brain heart infusion agar plates for MBC determination.
In microbroth dilution assay employing one clinical and one standard strain, both the bacteriostatic and the bactericidal values were determined for all four compounds as well as for clarithromycin (Table 4). Two-fold serial dilutions were prepared in 96-well microtitre plate containing a total volume of 0.1 mL Mueller Hinton broth supplemented with 5% FCS. A 3-day old liquid culture was diluted 10 times in Mueller Hinton broth and 0.1 mL of these cultures was inoculated into each well to give a final concentration of ˜10^6 CFU/mL. The plates were incubated for 3 days in a microaerophilic atmosphere at 37° C. Following incubation, the plates were examined visually, and the lowest concentration showing complete inhibition of growth was recorded as the MIC of the respective compound (Hachem et al., 1996). Aliquots (0.1 mL) of 72-h culture in which no growth had been detected were taken from the wells of the above microtitre plates and used to streak on fresh BHI agar plates.

[8] = biological target: T1, pig gastric H^+,K^+-ATPase (Sus scrofa, UniProt P19156); experiment: Gastric H+,K+-ATPase activity assay; type: biochemical
T1 construct: tubulovesicular and apical membranes, isolated from freshly slaughtered pig gastric mucosa; from tissue; host or cells: pig gastric mucosa (membrane fraction by density gradient centrifugation)
Experimental: The data are averages of 3-4 determinations each carried out in triplicate. The assay system contained 10 mM PIPES-Tris (pH 6.8), 2 mM each of ATP and MgCl2 with or without 10 mM KCl and about […] in a final volume of 1 mL. Both blank and experimental tubes with or without CPP-1 at different concentrations were preincubated with otherwise complete assay mixture at 37° C. for 10 min before initiating the reaction with the substrate ATP. K^+-stimulated activity referred to as H^+,K^+-ATPase activity, was calculated as the difference between the activity in presence of Mg^2+ plus K^+ and the basal activity (Mg^2+-ATPase) in presence of Mg2^+ alone. The specific activity of H^+,K^+-ATPase in control sets was in the range of 40-50 μmole Pi/mg protein/h.
The effect of CPP-1 on gastric H^+K^+-ATPase was investigated. Isolation of pig gastric mucosal membranes, rich in H^+,K^+-ATPase activity, was carried out by density gradient centrifugation technique (Ray, 1978). The enzyme assay system contained 10 mM PIPES-Tris (pH 6.8), 2 mM each of ATP and MgCl with or without 10 mM KCl and about […] in a final volume of 1 mL. Both blank and experimental tubes with or without CPP-1 at different concentrations were preincubated with otherwise complete assay mixture at 37° C. for 10 min before initiating the reaction with the substrate ATP. After appropriate time of incubation with ATP at 37° C., the reaction was terminated with the addition of 1 mL of ice-cold TCA (14%, w/v). The liberated inorganic phosphate (Pi) was estimated essentially by the method of Sanui (1974). K^+-stimulated activity referred to as H^+,K^+-ATPase activity, was calculated as the difference between the activity in presence of Mg^2+ plus K^+ and the basal activity (Mg^2+-ATPase) in presence of Mg^2+ alone. The specific activity of H^+,K^+-ATPase was expressed as micromoles of Pi liberated per hour per milligram protein. The data are averages of 3-4 determinations each carried out in triplicate. The specific activity of H^+,K^+-ATPase in control sets was in the range of 40-50 μmole Pi/mg protein/h.

[9] = ATCC43504, microbroth dilution, ATCC 43504

T1 sequence (P19156 2-1034 limits assumed): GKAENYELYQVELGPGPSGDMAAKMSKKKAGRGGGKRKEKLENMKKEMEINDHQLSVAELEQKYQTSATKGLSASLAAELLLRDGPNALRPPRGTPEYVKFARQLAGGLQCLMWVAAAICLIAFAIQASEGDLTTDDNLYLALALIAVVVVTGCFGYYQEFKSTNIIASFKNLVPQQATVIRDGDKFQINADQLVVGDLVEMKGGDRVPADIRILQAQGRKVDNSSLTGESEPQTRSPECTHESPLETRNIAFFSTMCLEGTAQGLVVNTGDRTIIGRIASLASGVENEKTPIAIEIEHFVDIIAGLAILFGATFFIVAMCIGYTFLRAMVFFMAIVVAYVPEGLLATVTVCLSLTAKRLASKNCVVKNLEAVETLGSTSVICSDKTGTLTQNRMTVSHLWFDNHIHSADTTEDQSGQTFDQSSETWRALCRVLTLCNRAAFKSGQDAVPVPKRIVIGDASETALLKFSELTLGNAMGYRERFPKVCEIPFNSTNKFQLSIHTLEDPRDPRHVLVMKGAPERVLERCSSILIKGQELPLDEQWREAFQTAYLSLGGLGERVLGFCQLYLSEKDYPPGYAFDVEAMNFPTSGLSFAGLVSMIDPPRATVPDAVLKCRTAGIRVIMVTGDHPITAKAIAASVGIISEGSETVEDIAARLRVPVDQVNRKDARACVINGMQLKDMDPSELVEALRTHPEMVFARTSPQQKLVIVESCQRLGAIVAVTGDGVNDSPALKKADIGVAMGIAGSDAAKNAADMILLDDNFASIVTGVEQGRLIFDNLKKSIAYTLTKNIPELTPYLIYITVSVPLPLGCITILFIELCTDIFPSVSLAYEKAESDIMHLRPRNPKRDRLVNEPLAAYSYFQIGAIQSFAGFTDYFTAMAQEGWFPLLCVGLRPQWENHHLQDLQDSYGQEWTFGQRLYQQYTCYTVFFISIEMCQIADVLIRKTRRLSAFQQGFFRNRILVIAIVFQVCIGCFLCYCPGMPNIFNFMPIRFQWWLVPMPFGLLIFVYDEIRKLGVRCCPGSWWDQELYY
T1 sequence (P18434 whole entry partner): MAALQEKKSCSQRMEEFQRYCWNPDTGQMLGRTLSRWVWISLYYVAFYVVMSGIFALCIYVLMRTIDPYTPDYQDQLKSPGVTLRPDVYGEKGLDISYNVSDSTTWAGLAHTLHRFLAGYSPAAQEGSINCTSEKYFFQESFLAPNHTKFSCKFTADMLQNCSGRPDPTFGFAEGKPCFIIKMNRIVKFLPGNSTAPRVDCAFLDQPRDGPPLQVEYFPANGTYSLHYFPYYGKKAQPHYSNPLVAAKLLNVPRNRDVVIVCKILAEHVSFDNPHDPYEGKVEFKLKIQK

Compound: 4-methyl-benzoic acid 5-hydroxy-6-methoxy-4-oxo-2-phenyl-4-H-chromen-yl ester [ORPM-1]
Activity class by inhibition zone diameter [1]: not active
Inhibition zone diameter (score) ([2]; ATCC standard strain 43504): Nil (‘Nil’ means zone of inhibition below 10 mm)
Inhibition zone diameter (score) ([2]; ATCC standard strain 49503): Nil (‘Nil’ means zone of inhibition below 10 mm)
Inhibition zone diameter (score) ([2]; ATCC standard strain 700392): Nil (‘Nil’ means zone of inhibition below 10 mm)
Inhibition zone diameter (score) ([2]; clinical strain HP001): + (Inhibition zone diameter ranging 10-20 mm was given a score of ^+)
Inhibition zone diameter (score) ([2]; clinical strain HP002): Nil (‘Nil’ means zone of inhibition below 10 mm)
Activity class by inhibition zone diameter [3]: not active

MIC ([4]; 2 h, pH ~2.0, 2 h, 25° C., 43504, read-out: MIC, Acid treated): 25000 µg/mL (≈ 63400 µM)
MIC ([4]; 2 h, pH ~2.0, 2 h, 25° C., HP001, read-out: MIC, Acid treated): 25000 µg/mL (≈ 63400 µM)
MIC ([4]; not acid treated, 43504, read-out: MIC, Control): 12500 µg/mL (≈ 31700 µM)
MIC ([4]; not acid treated, HP001, read-out: MIC, Control): 12500 µg/mL (≈ 31700 µM)
MIC50 ([6]; 72 h): ~12.5 µg/mL (≈ 31.7 µM)
MIC ([6]; 72 h, panel of 6 clinical isolates and 4 standard strains, read-out: MIC Range): 6.25 to 100 µg/mL (≈ 15.8 to 254 µM)
MIC50 [6]: 12.5 µg/mL (≈ 31.7 µM)
MIC ([6]; clinical strain HP001, read-out: MIC): 12.5 µg/mL (≈ 31.7 µM)
MIC ([6]; clinical strain HP002, read-out: MIC): 6.25 µg/mL (≈ 15.8 µM)
MIC ([6]; clinical strain HP003, read-out: MIC): 12.5 µg/mL (≈ 31.7 µM)
MIC ([6]; clinical strain HP004, read-out: MIC): 12.5 µg/mL (≈ 31.7 µM)
MIC ([6]; clinical strain HP005, read-out: MIC): 6.25 µg/mL (≈ 15.8 µM)
MIC ([6]; clinical strain HP006, read-out: MIC): 12.5 µg/mL (≈ 31.7 µM)
MIC ([6]; standard strain 43504, read-out: MIC): 12.5 µg/mL (≈ 31.7 µM)
MIC ([6]; standard strain 43629, read-out: MIC): 25 µg/mL (≈ 63.4 µM)
MIC ([6]; standard strain 49503, read-out: MIC): 3.12 µg/mL (≈ 7.92 µM)
MIC ([6]; standard strain 700392, read-out: MIC): 12.5 µg/mL (≈ 31.7 µM)
MIC Range ([6]; panel of 6 clinical isolates and 4 standard strains): 3.125 to 12.5 µg/mL
MIC [7, 9]: 12.5 µg/mL (≈ 31.7 µM)
MIC ([7]; microbroth dilution, HP001): 12.5 µg/mL (≈ 31.7 µM)
Compound: CN1CCN(CCCOc2cc(O)c3c(=O)cc(-c4ccccc4)oc3c2)CC1 [NMC-2, 5-Hydroxy-7-[3-(4-methyl-piperazin-1-yl)-propoxy]-2-phenyl-chromen-4-one]
MBC ([4]; 2 h, pH ~2.0, 2 h, 25° C., 43504, read-out: MBC, Acid treated): < 50000 µg/mL
MBC ([4]; 2 h, pH ~2.0, 2 h, 25° C., HP001, read-out: MBC, Acid treated): 50000 µg/mL (≈ 127000 µM)
MBC ([4]; not acid treated, 43504, read-out: MBC, Control): 50000 µg/mL (≈ 127000 µM)
MBC ([4]; not acid treated, HP001, read-out: MBC, Control): 25000 µg/mL (≈ 63400 µM)
time to complete killing ([5]; ATCC 43504, 2×MIC (clarithromycin 0.08, CPP-1 and NMC-1 12.5, NMC-2 and CPP-3 25 μg/mL)): ≤ 12 h
killing at MIC dose ([5]; ATCC 43504, MIC ([…])): could not produce complete killing
time at which killing/inhibition became evident ([5]; HP001, biphasic culture): > 9 h
killing at MIC dose (1×MIC) ([5]; HP001, up to 36 h): did not kill the bacteria completely even at 36 h
MBC [7, 9]: 50 µg/mL (≈ 127 µM)
MBC ([7]; microbroth dilution, HP001): 25 µg/mL (≈ 63.4 µM)
Inhibition zone diameter (score) ([2]; ATCC standard strain 43504): + (Inhibition zone diameter ranging 10-20 mm was given a score of ^+)
Inhibition zone diameter (score) ([2]; ATCC standard strain 49503): + (Inhibition zone diameter ranging 10-20 mm was given a score of ^+)
Inhibition zone diameter (score) ([2]; ATCC standard strain 700392): + (Inhibition zone diameter ranging 10-20 mm was given a score of ^+)
Inhibition zone diameter (score) ([2]; clinical strain HP001): + (Inhibition zone diameter ranging 10-20 mm was given a score of ^+)
Inhibition zone diameter (score) ([2]; clinical strain HP002): ++ (20-30 mm as ^++)

Percent inhibition of H^+, K^+-ATPase activity ([8]; 1 mg/assay (so in the source)): 20%
Percent inhibition of H^+, K^+-ATPase activity ([8]; 10 mg/assay (so in the source)): about 80%
inhibition of H^+,K^+-ATPase ([8]; dose range of 1-10 μg/assay): 20-80%
Compound: COc1ccc2[nH]c([S+]([O-])Cc3ncc(C)c(OC)c3C)nc2c1 (stereo not drawn) [Omeprazole, reference compound]
